# According to US20200170256A1, “Amonia Based Piscicide” (priority 2018, published 2020):
# Assays:
# [1] = system: mitochondrial complex I; conditions: 2011 NIH study; cited from earlier work
# [2] = system: fathead minnows; assay: fathead minnows exposed to the piscicide in 100-gallon laboratory tanks (effective amount of ammonium chloride); type: in vivo
# Protocol: During each replicate trial, ten fathead minnows were exposed to the pisticide over a four hour period in 100-gallon laboratory tanks at 20° C.
Compound,role in inhibiting mitochondrial complex I among 31 tested piscicides [1],effective amount of ammonium chloride alone (approximate same effect) [2]
C=C(C)[C@H]1Cc2c(ccc3c2O[C@@H]2COc4cc(OC)c(OC)cc4[C@@H]2C3=O)O1 [Rotenone],greatest role in inhibiting mitochondrial complex I,
Cl.N [ammonium chloride],,0.6-0.8 grams per gallon
